Measured values from PubChem BioAssay AID2060621 (Molecular Pharmacology Branch, DTP, NCI, 2025).

System: 324938-238-R-J1-PDC complex spheroids viability
Test: Anticancer human tumor 324938-238-R-J1-PDC patient-derived bladder carcinoma cell line growth inhibition [CLK]
Conditions: for IC50: curve of first compound; for viability, T/C: stronger effect = lower value
Excerpt: A high-throughput screen of multi-cell type tumor spheroids was designed to identify active combinations of […] and targeted small molecules. Complex spheroids include a stromal component modeled by human endothelial cells (HUVEC) and fibroblasts modeled by human mesenchymal stem cells (MSCs). The concentration ranges selected for each drug and investigational agent were based upon clinically achievable concentrations if the clinical Cmax of the agent was known.
Compounds. The drugs and investigational agents: cirtuvivint (SM08502; NSC835563), CC-671 (NSC850746), vemurafenib (NSC761431), tapotoclax (NSC804041), sotorasib (NSC818433), adagrasib (NSC831453), MRTX-1133 (NSC836407), BAY2416964 (NSC825713), copanlisib (NSC816437), inavolisib (NSC800729), abemaciclib (NSC768073), osimertinib (NSC779217), entinostat (NSC756642), eltanexor (KPT-8602, NSC794443), venetoclax (NSC766270), ceralasertib (NSC777638), bortezomib (NSC756655), olaparib (NSC753686), talazoparib (NSC767125), alisertib (NSC759677), peposertib (NSC802822), gemcitabine (NSC613327), 5-fluorouracil (NSC19893), SN-38 (NSC673596), oxaliplatin (NSC266046), paclitaxel (NSC125973), and doxorubicin (NSC123127), were obtained from the National Cancer Institute (NCI) Developmental Therapeutics Program Chemical Repository. The FDA-approved anticancer drug set is available from the Developmental Therapeutics Program at https://dtp.cancer.gov/organization/dscb/obtaining/available plates.htm. […] The stock solutions were prepared in dimethyl sulfoxide (DMSO, Sigma-Aldrich, St. Louis, MO, cat. D2650), except for the platinum complexes which were prepared in saline (Quality Biological, Gaithersburg, MD, cat. 114-055-101), at 800-fold the tested concentration and stored at -70 degrees C prior to their use. All drugs and investigational agents were tested over a range starting from a high concentration at or near the clinical Cmax and decreasing in half-log increments. If the clinical Cmax for an agent had not been determined, the highest concentration tested was 10 microM.
Cell Culture. All cells were maintained in an incubator at 37 degrees C and 5% CO2 with 95% humidity. The PDC lines were cultured according to standard operating procedures established by the NCI PDMR. Briefly, all PDCs were thawed and cultured in Matrigel-coated flasks prepared with a working solution of 1X Ham's F-12 nutrient mix, without supplementation (Invitrogen, Waltham, MA, cat. 11765054), 100 U/mL penicillin-streptomycin (Invitrogen, cat. 15140122), and 2.5% Matrigel (Corning Inc., Corning, NY, cat. 354248) for the first three passages. The 947758-054-R-J2-PDC line was cultured in 6B/Colon 1A media, which includes advanced DMEM/F-12 (Thermo Fisher Scientific, cat. 12634028), 10 mM HEPES (Thermo Fisher Scientific, cat. 15630080), 1X GlutaMAX supplement (Thermo Fisher Scientific, cat. 35050061), 0.1 mg/mL primocin (InvivoGen, cat. ant-pm-2), 10% defined fetal bovine serum, heat inactivated (HyClone Laboratories Inc., cat. SH30070.03HI), 1.25 mM N-Acetyl-L-cysteine (Sigma-Aldrich, cat. A9165), 10 mM nicotinamide (Sigma-Aldrich, cat. N0636), 1X B-27 supplement (Thermo Fisher Scientific, cat. 17504044), 1X N-2 supplement (Thermo Fisher Scientific, cat. 17502048), and 10 microM Y-27632 dihydrochloride (Tocris Bioscience, cat. 1254). The 876862-298-R-J1-PDC was cultured in 6E media, which includes all 6B/Colon 1A media components plus 50% L-WRN conditioned media (ATCC, cat. CRL-3276), 50 ng/mL recombinant human EGF recombinant protein (hEGF; Thermo Fisher Scientific, cat. PHG0311), 10 ng/mL recombinant human fibroblast growth factor 10 (hGFG-10; PeproTech, cat. 100-26), 1 ng/mL recombinant human fibroblast growth factor 2 (hFGF-2; PeproTech, cat. 100-18B), and 1 µM prostaglandin E2 (PGE2; Tocris, cat. 2296). The 227483-062-R1-J1-PDC line was cultured in Panc media, containing all 6E components except hFGF-2, with the addition of 500 nM SB-431542 (Selleckchem, cat. S1067) and 10 nM gastrin (Tocris, cat. 3006). […]
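Further: viability read after seven days of drug exposure.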
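Wherever viability, T/C is given: 100% = DMSO vehicle control wells.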

## CC(Nc1ccc2c(c1)OCCn1cc(N3C(=O)OCC3C(F)F)nc1-2)C(N)=O (configuration not stated) + CN1CCN(c2cc(C(=O)Nc3cc4cc(-c5cnn(C)c5)ccc4cn3)ccn2)CC1
Second compound 0.0316 µM
  IC50: 167 nM
Second compound 0.1 µM
  IC50: < 31.6 nM
Second compound 0.316 µM
  IC50: < 31.6 nM
Second compound 1 µM
  IC50: < 31.6 nM
Second compound 3.16 µM
  IC50: < 31.6 nM
Second compound 10 µM
  IC50: < 31.6 nM
Second compound 0.0316 µM, first compound 0.0316 µM
  viability, T/C: 65.8%
Second compound 0.0316 µM, first compound 0.1 µM
  viability, T/C: 58.5%
Second compound 0.0316 µM, first compound 0.316 µM
  viability, T/C: 40%
Second compound 0.0316 µM, first compound 1 µM
  viability, T/C: 29.9%
Second compound 0.0316 µM, first compound 3.16 µM
  viability, T/C: 24.4%
Second compound 0.0316 µM, first compound 10 µM
  viability, T/C: 15.8%
Second compound 0.1 µM, first compound 0.0316 µM
  viability, T/C: 48.2%
Second compound 0.1 µM, first compound 0.1 µM
  viability, T/C: 40%
Second compound 0.1 µM, first compound 0.316 µM
  viability, T/C: 29.6%
Second compound 0.1 µM, first compound 1 µM
  viability, T/C: 26.5%
Second compound 0.1 µM, first compound 3.16 µM
  viability, T/C: 23.3%
Second compound 0.1 µM, first compound 10 µM
  viability, T/C: 15.5%
Second compound 0.316 µM, first compound 0.0316 µM
  viability, T/C: 21.3%
Second compound 0.316 µM, first compound 0.1 µM
  viability, T/C: 20.8%
Second compound 0.316 µM, first compound 0.316 µM
  viability, T/C: 15.2%
Second compound 0.316 µM, first compound 1 µM
  viability, T/C: 14.1%
Second compound 0.316 µM, first compound 3.16 µM
  viability, T/C: 11.8%
Second compound 0.316 µM, first compound 10 µM
  viability, T/C: 9.85%
Second compound 1 µM, first compound 0.0316 µM
  viability, T/C: 1.49%
Second compound 1 µM, first compound 0.1 µM
  viability, T/C: 2.08%
Second compound 1 µM, first compound 0.316 µM
  viability, T/C: 1.71%
Second compound 1 µM, first compound 1 µM
  viability, T/C: 0.86%
Second compound 1 µM, first compound 3.16 µM
  viability, T/C: 0.52%
Second compound 1 µM, first compound 10 µM
  viability, T/C: 0.51%
Second compound 3.16 µM, first compound 0.0316 µM
  viability, T/C: 0.1%
Second compound 3.16 µM, first compound 0.1 µM
  viability, T/C: 0.15%
Second compound 3.16 µM, first compound 0.316 µM
  viability, T/C: 0.14%
Second compound 3.16 µM, first compound 1 µM
  viability, T/C: 0.1%
Second compound 3.16 µM, first compound 3.16 µM
  viability, T/C: 0.16%
Second compound 3.16 µM, first compound 10 µM
  viability, T/C: 0.18%
Second compound 10 µM, first compound 0.0316 µM
  viability, T/C: 0.07%
Second compound 10 µM, first compound 0.1 µM
  viability, T/C: 0.14%
Second compound 10 µM, first compound 0.316 µM
  viability, T/C: 0.19%
Second compound 10 µM, first compound 1 µM
  viability, T/C: 0.12%
Second compound 10 µM, first compound 3.16 µM
  viability, T/C: 0.17%
Second compound 10 µM, first compound 10 µM
  viability, T/C: 0.2%
